Assays:
bound NADH fraction = test: NADH fluorescence lifetime imaging (FLIM); format: cell-based; conditions: mimicked amino acid and glucose starvation
From the text: Cells adapt to nutrient limitation by increasing oxidative phosphorylation. The relative rate of glycolysis and oxidative phosphorylation can be monitored by measuring the fluorescence lifetime of the reduced form of nicotinamide adenine dinucleotide (NADH). A higher ratio of protein-bound to free NADH (increased lifetime) correlates with increased oxidative phosphorylation in multiple cell types both in vitro and in vivo. Oligomycin and rotenone/antimycin A are molecules known in the field to induce glycolysis, whereas 2-deoxy-glucose (2DG) is an inhibitor of glycolysis and subsequently increases oxidative phosphorylation. Starvation of cells by removing access to glucose and amino acids is also known to increase oxidative phosphorylation. […]
NADH Fluorescence Lifetime Imaging Microscopy (FLIM). […] The excitation wavelength was 740 nm and a dichroic filter (690 nm) was used to separate the fluorescence signal from the laser light. […] The fluorescence was detected by a hybrid detector (HPM-100 Hamamatsu). […] The FLIM system was calibrated during each imaging session by measuring the fluorescence decay of fluorescein with a single exponential of 4.04 nsec. […] Data was processed by the SimFCS software developed at the Laboratory of Fluorescence Dynamics at UCI. […]

[1] = test system: autochthonous prostate tumor (pDKO); test: pDKO autochthonous prostate cancer mouse model; format: in vivo
Method: To determine the sensitivity, SH-BC-893 was evaluated in a validated genetically-engineered mouse model for invasive castration-resistant prostate cancer that lacks p53 and PTEN expression exclusively in the prostate (pDKO) (Wu X, et al. Am J Clin Exp Urol. 2014; 2(2):111-20; Schwarzenböck S, et al. Theranostics. 2012; 2(3):318-330; Chen Z, et al. Nature. 2005; 436(7051):725-730; the disclosures of which are herein incorporated by reference). […] SH-BC-893, however, still produced a phenotype consistent with starvation as the bound NADH fraction increased and cell permeant nutrients protected mPCE cells from death (FIGS. 65A and 65C). Prostate cancer cells depend on exogenous LDL for growth and survival. […] Ceramide and YM201636 both reduced surface LDLr levels, but LDLr still accumulated in different intracellular compartments (FIG. 66A). Consistent with their ability to block lysosomal fusion (FIG. 61), both YM201636 and SH-BC-893 reduced LDL co-localization with Lysotracker Blue (FIGS. 65F and 65G). In keeping with the inhibition of LDL degradation in lysosomes, cellular lipid droplet content was inversely correlated with the extent of vacuolation (FIG. 66B). In summary, sphingolipid-like compounds, such as SH-BC-893, starve slow-growing neoplasms, such prostate cancer, by down-regulating nutrient transporters and blocking lysosomal nutrient generation.
The ability of starvation-inducing sphingolipid-like drugs to affect the growth of slow growing or autochthonous neoplasms was also evaluated. In C57BL/6 mice bearing mPCE subcutaneous isografts, 60 mg/kg SH-BC-893 was given daily by gavage and slowed tumor growth by 60% similar to results with SW620 xenografts dosed with 20 mg/kg i.p. (FIGS. 53G-I and 65I). At 120 mg/kg, SH-BC-893 inhibited prostate tumor growth by more than 90% (FIG. 65I). […] Akt activity was slightly elevated by SH-BC-893 consistent with loss of TORC1-mediated negative feedback. Thus, sphingolipid-like compounds, such as SH-BC-893, are effective against neoplasms with distinct molecular defects and metabolic characteristics.
SH-BC-893 produces equivalent transporter loss and vacuolation in normal and transformed cells and therefore also limits the access of normal cells to nutrients (FIGS. 51C, 51E, 56B and 56C). […] The lack of toxicity to normal tissues is consistent with the finding that non-transformed cells can adapt to nutrient stress that triggers a bioenergetic crisis in less metabolically flexible tumor cells (FIGS. 53D and 53E).
In vivo studies. Experiments conducted in mice were performed in accordance with the Institutional Animal Care and Use Committee of University of California, Irvine following a power analysis conducted in consultation with the Biostatistics Shared Resource of Chao Family Comprehensive Cancer Center at UCI. Xenografts were produced by injecting 5 million cells subcutaneously in the flank of 10-16 week-old male or female NSG mice. Prostate isografts were produced in the same manner but in male 6-8 wk old C57BL/6 mice. Once tumors reached 100 mm^3, SH-BC-893 was administered by intraperitoneal (i.p.) injection or oral gavage as indicated. Tumor volume was calculated using the formula, volume (mm^3)=length [mm]×(width [mm])^2×0.52; BLI was measured using an IVIS imaging system (Xenogen). To generate pDKO mice on the C57BL6 background, Pten^flox mice (stock No. 0045597) and p53^flox mice (stock No. 008462) were obtained from the Jackson Laboratory and PB-Cre4 mice (strain #01XF5) were obtained from the NCI-Frederick Mouse Repository. Age-matched cohorts of pDKO males were generated by in vitro fertilization executed with the assistance of the Transgenic Mouse Facility at UC Irvine. Treatment was begun at 6-7 wks of age. […] Tumor samples were processed and imaged by the Pathology Research Services Core Facility at UC Irvine. Blood chemistry was analyzed by IDEXX BioResearch and complete blood counts were performed using a Hemavet hematology system.

CCCCCCCCc1ccc([C@H]2CCN[C@@H]2CO)cc1.Cl [Compound 5, (2S,3R)-2-(hydroxymethyl)-3-(4-octylphenyl)Pyrrolidinium chloride]
bound NADH fraction (bound NADH fraction): increasing
histopathology of intestinal crypts ([1]; mice treated with 120 mg/kg for 11 weeks): normal
weight gain ([1]; pDKO mice): gained less weight than untreated mice
decrease of autochthonous tumor growth ([1]; pDKO mice, 60 mg/kg): 62%
decrease of autochthonous tumor growth ([1]; pDKO mice, 120 mg/kg): 82%
prostate tumor progression, histology ([1]; pDKO mice, treated mice exclusively exhibited prostatic intraepithelial neoplasia): slowed prostate tumor progression
TORC1-dependent ribosomal protein S6 phosphorylation in tumors ([1]; treated prostate tumors): reduced
